Consider one compound from US11866416B2, “Streptococcus mutans glucosyl transferase inhibitors for dental caries therapy” (UAB Research Foundation, priority 2018, dated 2024).

Read-outs that look alike come from different tables or passages of the source.

Usually IC50 stands for the concentration that inhibits the measured activity by half. As usually defined, the melting point is the temperature, or range, at which the solid turns liquid.

One data set relates to S. mutans biofilm. Nature of the data set: S. mutans biofilm formation and inhibition assay (96-well plates, crystal violet). The format is cell-based, Streptococcus mutans. As to conditions: Streptococcus mutans.
In a further data set the test system is S. mutans. As to the kind of experiment: microbe, parasite or virus in culture. The class given is cell-based, Streptococcus mutans. The method in brief:
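Mid-exponential cultures (OD470 0.6) in THB were exposed to compound concentrations for 16 h, with growth read at OD470 and normalised to 1% DMSO control (100%). CFU/mL were also counted after 24 h at 37 °C and compared with the DMSO control.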

The next data set has as its system S. mutans Gtfs. Nature of the data set: Gtf zymographic assay with SDS-PAGE. The class given is biochemical, Streptococcus mutans. As to conditions: 50 μM added to cultures. The procedure:
A well-established zymographic assay was used to determine enzymatic activity of Gtfs (Mattos-Graner et al. (2004) J. Clin. Microbiol. 42, […]). In brief, overnight S. mutans UA159 cultures were diluted 1:100 in fresh 5 mL THB with 50 μL of selective compounds at a series of concentrations. Treated bacteria were grown to OD470 of 1.0, and spun down by centrifugation at 4° C., and culture supernatants were collected and filtered through a 0.22-μm-pore-size filter membrane to remove residual bacterial cells and dialyzed at 4° C. against 0.02 M sodium phosphate buffer (pH 6.8), with 10 μM phenylmethylsulfonyl fluoride (PMSF), followed by a second dialysis against 0.2 mM sodium phosphate containing 10 μM PMSF. After dialysis, 4 mL of samples were concentrated to 40 μL by 100K Amicon Ultra-4 centrifugal filter (Merck Millipore Ltd.). For electrophoresis and zymographic analysis, 10 μL of each concentrated culture supernatant was applied to 8% SDS-PAGE in duplicate. One gel was used for protein staining with Coomassie blue dye, while the other one was subjected to zymographic assay as described (Mattos-Graner et al. (2004) J. Clin. Microbiol. 42, […]). The resultant white opaque glucan bands were visualized against a black background.
Inhibition of the activity of Gtfs determined by zymographic assays. Well established zymographic assay was used to determine enzymatic activity of Gtfs. In brief, overnight S. mutans UA159 cultures were diluted 1:100 in fresh 5 mL THB. Bacteria were grown to OD470 of 1.0, and spun down by centrifugation at 4° C. and culture supernatants were collected and filtered through a 0.22-μm-pore-size filter membrane to remove residual bacterial cells and dialyzed at 4° C. against 0.02 M sodium phosphate buffer (pH 6.8), with 10 μM phenylmethylsulfonyl fluoride (PMSF), followed by a second dialysis against 0.2 mM sodium phosphate containing 10 μM PMSF. After dialysis, 4 mL of samples were concentrated to 40 μL by 100K Amicon Ultra-4 centrifugal filter (Merk Millipore Ltd.). For electrophoresis and zymographic analysis, 10 μL of each concentrated culture supernatant was applied to 8% SDS-PAGE in duplicate. One gel was used for protein staining with Coomassie blue dye, while the other one was subjected to zymographic assay. For zymogram analysis, following electrophoretic separation, gels were washed twice for 15 min each with renaturing buffer containing 2.5% Triton X-100. Gels were then incubated for 18 h at 37° C. with 0.2 M sodium phosphate buffer (pH 6.5) containing 0.2% dextran T70, 5% sucrose, and varying concentrations of the small molecule inhibitors. The reactions were stopped by washing gels with distilled water at 4° C. for 10 min, and digital images of the resultant white opaque glucan bands were visualized against a black background and captured using a digital camera.
Inhibition of the activity of Gtfs determined by zymographic assays. A well-established zymographic assay was used to determine enzymatic activity of Gtfs (Mattos-Graner, R. O., Napimoga, M. H., Fukushima, K., Duncan, M. J., Smith, D. J., J Clin Microbiol, 2004, 42, 4586). In brief, overnight S. mutans UA159 cultures were diluted 1:100 in fresh 5 mL THB with 50 μL of selective compounds at a series of concentrations. Treated bacteria were grown to OD470 of 1.0, and spun down by centrifugation at 4° C., and culture supernatants were collected and filtered through a 0.22-μm-pore-size filter membrane to remove residual bacterial cells and dialyzed at 4° C. against 0.02 M sodium phosphate buffer (pH 6.8), with 10 μM phenylmethylsulfonyl fluoride (PMSF), followed by a second dialysis against 0.2 mM sodium phosphate containing 10 μM PMSF. After dialysis, 4 mL of samples were concentrated to 40 μL by 100K Amicon Ultra-4 centrifugal filter (Merk Millipore Ltd.). For electrophoresis and zymographic analysis, 10 μL of each concentrated culture supernatant was applied to 8% SDS-PAGE in duplicate. […]

The subject of another data set is S. mutans colonization. Nature of the data set: Sucrose-dependent Drosophila colonization model. The class given is in vivo. Conditions: chalcones; 100 μM or 50 μM.

Procedure for S. mutans colonization: Briefly, Gfp tagged S. mutans bacteria were infected into flies along with the treatment appropriate compound at 100 μM in a feeding-assay.
Mid-log phase THB cultures of Gfp-tagged (green fluorescent protein) S. mutans UA159 were spun down and resuspended in a solution containing 5% sucrose and 50 μM of the compound. 100 μL of resuspended cells were spotted onto a sterile filter that was placed on the surface of 5 mL of solidified 5% sucrose agar in a plastic vial. The vials were allowed to dry at room temperature for 30 minutes prior to addition of flies. Male Canton S flies (1-3 days old) were treated with antibiotics for 2 days and starved for 3 hours prior to the addition to vials supplied with S. mutans (10 flies per vial). The colonization of flies by Gfp-tagged strains were analyzed by Nikon elipse 90i microscope, equipped with an Epi-fluorescence and NIS elements AR imaging system.
The intensity of the fluorescence was measured in the guts of the flies fed with the Gfp tagged bacteria after 7 days of infection.
Cultures of Gfp-tagged (green fluorescent protein) S. mutans UA159 grown to middle log phase were spun down and re-suspended in a solution containing 5% sucrose and 50 μM of each compound. 100 μL of re-suspended cells were aliquoted onto a sterile filter that was placed on the surface of 5 mL of solidified 5% sucrose agar in a plastic vial. Upon the drying of the vials at room temperature for 30 min, the flies were introduced to the vessels. Male Canton S flies (1-3 days old) were treated with antibiotics for 2 days and starved for 3 h before the addition to vials supplied with S. mutans (10-14 flies per vial). Nikon elipse 90i microscope, equipped with an Epi-fluorescence and NIS elements AR imaging system was used to analyze the colonization of flies by Gfp-tagged strains.

Compound `O=C(/C=C\c1ccc(O)cc1O)c1cccc(O)c1` [Compound 9b, (Z)-3-(2,4-Dihydroxyphenyl)-1-(3-hydroxyphenyl)-2-propen-1-one] came in with a melting point of 164 to 167 °C. The IC50 in the data set on S. mutans biofilm (Table 7, synthesized analogs of compound 9, read-out: Biofilm IC50) was 44 ± 5 µM. Further, the IC50 in the data set on S. mutans biofilm (read-out: S. mutans biofilm IC50) is 44 µM. In addition, the “selectivity (index / fold) for biofilm over growth” value in the data set on S. mutans was “about 10”. The IC50 in the data set on S. mutans (Streptococcus mutans, Table 7, synthesized analogs of compound 9, read-out: Growth IC50) is 468 ± 16 µM. The “SI (selectivity index)” value in the data set on S. mutans (Table 7, growth IC50 value divided by biofilm IC50 value) came out at 10.6. For the same compound, in the data set on S. mutans Gtfs, the “Gtf enzyme inhibitory activity, glucan bands in zymogram” value is given as “exhibit the best inhibitory effects” and the “production of Gtfs, protein level on SDS-PAGE” value was “showed an inhibitory effect on the production of Gtfs”. Also, the “fluorescence of Gfp tagged S. mutans in fly guts after 7 days” value in the data set with S. mutans colonization is “marked reduction in fluorescence”.
